Measurements published in ChEMBL document CHEMBL1201862, “PubChem BioAssay data set” (2004).
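48-hour exposure; five concentrations; linearly interpolated endpoints. GI50 is the concentration that inhibits growth by half.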 Calls of active or inactive are those of the source. Rule as the data show it: active = GI50 up to about 1.1 µM and inactive = higher.

Experiments:
Assay in all cases: DTP human tumour cell line panel, 48 h
A549 = tested on: A549
COLO 205 = tested on: COLO 205
DLD-1 = tested on: DLD-1
EKVX = tested on: EKVX
HOP-92 = tested on: HOP-92
LOX IMVI = tested on: LOX IMVI
M14 = tested on: M14
MOLT-4 = tested on: MOLT-4
Malme-3M = tested on: Malme-3M
NCI-H226 = tested on: NCI-H226
NCI-H460 = tested on: NCI-H460
OVCAR-8 = tested on: OVCAR-8
SF-295 = tested on: SF-295
SNB-19 = tested on: SNB-19
TK-10 = tested on: TK-10
NCI-H522 = tested on: NCI-H522
DU-145 = tested on: DU-145
MDA-MB-231 = tested on: MDA-MB-231
MDA-N = tested on: MDA-N
T47D = tested on: T47D

Measured: GI50

Cc1cc(C)n(-c2ccnc3cc(Cl)ccc23)n1
inactive: A549 > 100 µM | COLO 205 > 100 µM | DLD-1 > 100 µM | EKVX > 100 µM | HOP-92 > 100 µM | LOX IMVI > 100 µM | M14 > 100 µM | MOLT-4 > 100 µM | Malme-3M > 100 µM | NCI-H226 > 100 µM | NCI-H460 > 100 µM | OVCAR-8 > 100 µM | SF-295 > 100 µM | SNB-19 > 100 µM | TK-10 > 100 µM

Cc1csc(=S)n1OC(=O)NC1CCCCC1
inactive: A549 > 73.3 µM | DLD-1 55.5 µM | EKVX > 100 µM | HOP-92 7.89 µM | LOX IMVI 65.3 µM | M14 40.9 µM | MOLT-4 9.77 µM | Malme-3M > 100 µM | NCI-H226 > 100 µM | NCI-H460 > 100 µM | NCI-H522 18.1 µM | OVCAR-8 > 100 µM | SF-295 > 100 µM | SNB-19 > 100 µM | TK-10 > 100 µM

COC1(OC)CC2C(=O)N(Cc3ccccc3)C1CC2S(=O)(=O)c1ccccc1 (stereo not drawn)
inactive: A549 > 100 µM | COLO 205 > 100 µM | DLD-1 > 100 µM | EKVX > 100 µM | LOX IMVI > 100 µM | M14 > 100 µM | MOLT-4 > 100 µM | Malme-3M > 100 µM | NCI-H226 > 100 µM | NCI-H460 > 100 µM | NCI-H522 > 100 µM | OVCAR-8 > 100 µM | SF-295 > 100 µM | SNB-19 > 100 µM | TK-10 > 100 µM

CC(C)=CC(=O)c1[nH]c2ccccc2c1CC(=O)NCCc1cncn1C
inactive: A549 68.4 µM | COLO 205 21.9 µM | DU-145 32.5 µM | EKVX 25.8 µM | HOP-92 36.4 µM | LOX IMVI 55.5 µM | M14 72.3 µM | MDA-MB-231 84.3 µM | MDA-N 50.7 µM | MOLT-4 > 100 µM | Malme-3M > 100 µM | NCI-H226 88.3 µM | NCI-H460 52.6 µM | NCI-H522 21.8 µM | OVCAR-8 62.4 µM | SF-295 > 100 µM | SNB-19 93.8 µM | T47D 34.6 µM | TK-10 58.7 µM

CCOc1ccc(NC2=NC(=O)C(CC(=O)Nc3ccccc3[N+](=O)[O-])S2)cc1 (stereo not drawn)
inactive: A549 > 100 µM | DLD-1 > 100 µM | EKVX > 100 µM | HOP-92 > 100 µM | LOX IMVI > 100 µM | M14 > 100 µM | MOLT-4 > 100 µM | Malme-3M > 100 µM | NCI-H226 > 100 µM | NCI-H460 > 100 µM | NCI-H522 > 100 µM | OVCAR-8 > 100 µM | SF-295 > 100 µM | SNB-19 > 100 µM | TK-10 > 100 µM

O=C(NCCNCCO)N/N=C/c1ccccc1
inactive: A549 > 100 µM | DLD-1 > 100 µM | LOX IMVI > 100 µM | M14 > 100 µM | MOLT-4 > 100 µM | Malme-3M > 100 µM | NCI-H226 > 100 µM | NCI-H460 > 100 µM | NCI-H522 > 100 µM | OVCAR-8 > 100 µM | SF-295 > 100 µM | SNB-19 > 100 µM | TK-10 > 100 µM

Nc1nc(N)c(-c2ccccc2)c(CCC(=O)Nc2ccc(Cl)cc2)n1
inactive: A549 > 100 µM | COLO 205 > 100 µM | DLD-1 > 100 µM | EKVX > 100 µM | HOP-92 > 100 µM | M14 > 100 µM | MOLT-4 > 100 µM | Malme-3M > 100 µM | NCI-H226 > 100 µM | NCI-H460 > 100 µM | NCI-H522 > 100 µM | OVCAR-8 > 100 µM | SF-295 > 100 µM | SNB-19 > 100 µM | TK-10 > 100 µM

O=c1cccccc1NCCNc1cccccc1=O
inactive: A549 > 100 µM | COLO 205 > 100 µM | DLD-1 > 10 µM | EKVX > 100 µM | HOP-92 > 100 µM | LOX IMVI > 100 µM | M14 > 100 µM | MOLT-4 > 100 µM | Malme-3M 13.9 µM | NCI-H226 > 100 µM | NCI-H460 > 100 µM | NCI-H522 > 100 µM | OVCAR-8 > 100 µM | SF-295 > 100 µM | SNB-19 > 100 µM

CC1(C)CC(=O)C2=C(C1)C(c1ccccc1Cl)C1C(=O)CC(C)(C)CC1(O)O2 (stereo not drawn)
inactive: A549 > 100 µM | COLO 205 > 31.6 µM | DU-145 > 100 µM | EKVX > 100 µM | HOP-92 > 100 µM | LOX IMVI > 68.2 µM | M14 98.2 µM | MDA-MB-231 > 100 µM | MDA-N 19.6 µM | MOLT-4 74.5 µM | Malme-3M > 100 µM | NCI-H226 > 100 µM | NCI-H460 > 100 µM | NCI-H522 > 100 µM | OVCAR-8 > 86.7 µM | SF-295 > 31.6 µM | SNB-19 > 100 µM | T47D > 100 µM | TK-10 > 100 µM

CCOC(=O)NC(=O)c1cn(C2OC(COC(=O)CCCCCCCCC(=O)OCC3OC(n4cc(C(=O)NC(=O)OCC)c(=O)[nH]c4=O)C4OC(C)(C)OC34)C3OC(C)(C)OC32)c(=O)[nH]c1=O (stereo not drawn)
inactive: A549 90.4 µM | DLD-1 > 100 µM | EKVX > 100 µM | HOP-92 67.1 µM | LOX IMVI > 100 µM | M14 63.4 µM | MOLT-4 35.6 µM | Malme-3M > 100 µM | NCI-H226 77.4 µM | NCI-H460 > 100 µM | OVCAR-8 78 µM | SF-295 > 100 µM | SNB-19 51.6 µM | TK-10 > 100 µM

CCOC(=O)NC(=O)c1cn(CCOC(=O)CCCCCCCCC(=O)OCCn2cc(C(=O)NC(=O)OCC)c(=O)[nH]c2=O)c(=O)[nH]c1=O
inactive: A549 > 100 µM | DLD-1 > 100 µM | EKVX > 100 µM | HOP-92 > 100 µM | LOX IMVI > 100 µM | M14 > 100 µM | MOLT-4 > 100 µM | Malme-3M > 100 µM | NCI-H226 > 100 µM | NCI-H460 > 100 µM | OVCAR-8 > 100 µM | SF-295 > 100 µM | SNB-19 > 100 µM | TK-10 > 100 µM

Cc1c(O)c(O)cc[n+]1C1OC(CO)C(O)C1O (stereo not drawn)
inactive: A549 > 100 µM | COLO 205 > 100 µM | DLD-1 > 100 µM | EKVX > 100 µM | HOP-92 > 100 µM | LOX IMVI > 100 µM | M14 > 100 µM | Malme-3M > 100 µM | NCI-H226 > 100 µM | NCI-H460 > 100 µM | NCI-H522 > 100 µM | OVCAR-8 > 100 µM | SNB-19 > 100 µM | TK-10 > 100 µM

Cc1cccc(Cl)c1NC(=O)c1cccc([N+](=O)[O-])c1O
inactive: A549 35.7 µM | COLO 205 51.5 µM | DLD-1 31.7 µM | EKVX 39.6 µM | HOP-92 23 µM | LOX IMVI 27.5 µM | M14 43.8 µM | MOLT-4 29.2 µM | Malme-3M 27 µM | NCI-H226 22.2 µM | NCI-H460 29 µM | NCI-H522 20.4 µM | OVCAR-8 48.1 µM | SF-295 28.9 µM | SNB-19 38.5 µM
